Assay results as given in the NIST ThermoML archive (doi:10.1021/je7007022).

Experiment: excess molar enthalpy (molar enthalpy of mixing); xn = mol fraction of the nth substance listed
Details: 303.15 K, 101 kPa, Liquid, Flow calorimetry

O=CO [formic acid] + C1COCCO1
Details	excess molar enthalpy [kcal/mol]
x2 = 0.056	-0.0504
x2 = 0.114	-0.096
x2 = 0.225	-0.194
x2 = 0.301	-0.275
x2 = 0.383	-0.35
x2 = 0.472	-0.401
x2 = 0.58	-0.418
x2 = 0.705	-0.354
x2 = 0.762	-0.274
x2 = 0.836	-0.182
x2 = 0.917	-0.0574
